Assays:
[1] = system: Alternaria solani; test: Test G: tomato early blight, test suspension sprayed on seedlings, disease rating; format: in vivo; settings: Alternaria solani, 168 h; for pest or weed control at 200 ppm: 200 ppm test suspension; for pest or weed control at 40 ppm: 40 ppm test suspension (*);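 for all read-outs here: 200 ppm unless marked * meaning 40 ppm or ** meaning 10 ppm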
[2] = system: Fusarium graminearum; test: whole plant or invertebrate; format: in vivo; settings: for pest or weed control at 200 ppm / pest or weed control at 40 ppm: Fusarium graminearum, in Triticum aestivum, 192 h, read-out: Test C disease control rating; for Test C disease control rating: 200 ppm test suspension
[3] = system: Plasmopara viticola; test: Test K: grape downy mildew, grape seedlings inoculated and then sprayed, disease rating; format: in vivo; settings: 200 ppm test suspension
[4] = system: Phytophthora infestans; test: whole plant or invertebrate; format: in vivo; settings: for pest or weed control at 200 ppm / pest or weed control at 40 ppm: Phytophthora infestans, in Solanum lycopersicum, 120 h, read-out: Test J disease control rating; for Test J disease control rating: 200 ppm test suspension
[5] = system: Septoria nodorum; test: Test D: wheat glume blotch, test suspension sprayed on wheat seedlings, disease rating; format: in vivo; settings: 200 ppm test suspension; for pest or weed control at 200 ppm: Parastagonospora nodorum, 216 h
[6] = system: Puccinia recondite f sp. tritici; test: Test B: wheat leaf rust, test suspension sprayed on wheat seedlings, disease rating; format: in vivo; settings: for pest or weed control at 200 ppm / pest or weed control at 40 ppm: Puccinia, 192 h; for pest or weed control at 200 ppm / Test B disease control rating: 200 ppm test suspension; for pest or weed control at 40 ppm: 40 ppm test suspension (*);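 for all read-outs here: 200 ppm unless marked * meaning 40 ppm or ** meaning 10 ppm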
[7] = system: Pythium aphanidermatum; test: Test L: bluegrass pythium blight, test suspension sprayed on bluegrass seedlings, disease rating; format: in vivo; settings: for pest or weed control at 200 ppm / pest or weed control at 40 ppm: Pythium aphanidermatum, 120 h; for pest or weed control at 200 ppm / Test L disease control rating: 200 ppm test suspension; for pest or weed control at 40 ppm: 40 ppm test suspension (*);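 for all read-outs here: 200 ppm unless marked * meaning 40 ppm or ** meaning 10 ppm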
[8] = system: Colletotrichum orbiculare; test: Test F: cucumber Colletotrichum anthracnose, test suspension sprayed on cucumber seedlings, disease rating; format: in vivo; settings: 200 ppm test suspension; for pest or weed control at 200 ppm: Colletotrichum orbiculare, 144 h
[9] = system: Botrytis cinerea; test: Test H: tomato Botrytis, test suspension sprayed on tomato seedlings, disease rating; format: in vivo; settings: 200 ppm test suspension; for pest or weed control at 200 ppm: Botrytis cinerea, 120 h
[10] = system: Rhizoctonia oryzae; test: Test I: turf brown patch, test suspension sprayed on creeping bent grass seedlings, disease rating; format: in vivo; settings: 200 ppm test suspension; for pest or weed control at 200 ppm: Waitea circinata, in Agrostis stolonifera, 120 h
[11] = system: Erysiphe graminis f. sp. tritici; test: Test A: wheat powdery mildew, test suspension sprayed on wheat seedlings, disease rating; format: in vivo; settings: 200 ppm test suspension, 100 = 100% disease control, 0 = no control; for pest or weed control at 200 ppm: Blumeria graminis, 192 h
[12] = system: Septoria tritici; test: Test E: wheat leaf blotch, test suspension sprayed on wheat seedlings, disease rating; format: in vivo; settings: for pest or weed control at 40 ppm / pest or weed control at 200 ppm: Zymoseptoria tritici, 504 h; for pest or weed control at 40 ppm: 40 ppm test suspension (*); for pest or weed control at 200 ppm / Test E disease control rating: 200 ppm test suspension;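 for all read-outs here: 200 ppm unless marked * meaning 40 ppm or ** meaning 10 ppm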

SMILES	pest or weed control at 200 ppm [2]	pest or weed control at 200 ppm [4]	pest or weed control at 200 ppm [5]	pest or weed control at 200 ppm [6]	pest or weed control at 200 ppm [7]	melting point	pest or weed control at 200 ppm [8]	pest or weed control at 200 ppm [9]	pest or weed control at 200 ppm [10]	pest or weed control at 200 ppm [11]	pest or weed control at 200 ppm [12]	further results
Fc1ccc(-c2nn3c(c2-c2ccnc(NC4CC4)n2)CCCN3)cc1 [Compound 131, N-cyclopropyl-4-[2-(4-fluorophenyl)-4,5,6,7-tetrahydropyrazolo[1,5-b]pyridazin-3-yl]-2-pyrimidinamine]	100%	97%	87%	100%	100%	184 to 187 °C	58%	9%	57%	96%	–	pest or weed control at 200 ppm [1]: 81%; Test K disease control rating [3]: 0%
CC(CO)Nc1nccc(-c2c(-c3ccc(F)cc3)nn3c2CCCN3)n1 (stereo not shown) [Compound 132, 2-[[4-[2-(4-fluorophenyl)-4,5,6,7-tetrahydropyrazolo[1,5-b]pyridazin-3-yl]-2-pyrimidinyl]amino]-1-propanol]	–	–	0%	–	–	165 to 167 °C	0%	0%	0%	66%	–	pest or weed control at 40 ppm [1]: 0%; pest or weed control at 40 ppm [2]: 0%; pest or weed control at 40 ppm [4]: 65%; pest or weed control at 40 ppm [6]: 88%; pest or weed control at 40 ppm [7]: 100%; pest or weed control at 40 ppm [12]: 0%
CC(C)Nc1nccc(-c2c(-c3ccc(F)cc3)nn3c2COCC3)n1 [Compound 107, 4-[2-(4-fluorophenyl)-6,7-dihydro-4H-pyrazolo[5,1-c][1,4]oxazin-3-yl]-N-(1-methylethyl)-2-pyrimidinamine]	99%	100%	99%	99%	100%	144 to 146 °C	99%	90%	80%	92%	100%	pest or weed control at 40 ppm [1]: 99%
Fc1ccc(-c2nn3c(c2-c2ccnc(NCC4CC4)n2)CCCC3)cc1 [Compound 24, N-(cyclopropylmethyl)-4-[2-(4-fluorophenyl)-4,5,6,7-tetrahydropyrazolo[1,5-a]pyridin-3-yl]-2-pyrimidinamine]	–	72%	98%	–	0%	124 to 125 °C	–	–	–	97%	98%	–
Fc1ccc(-c2nn3c(c2-c2ccnc(NC4CCC4)n2)CCCC3)cc1 [Compound 51, N-cyclobutyl-4-[2-(4-fluorophenyl)-4,5,6,7-tetrahydropyrazolo[1,5-a]pyridin-3-yl]-2-pyrimidinamine]	100%	93%	100%	98%	100%	155 to 157 °C	–	–	–	81%	100%	–
c1ccc(-c2nn3c(c2-c2ccnc(NC4CC4)n2)COCC3)cc1 [Compound 117, N-cyclopropyl-4-(6,7-dihydro-2-phenyl-4H-pyrazolo[5,1-c][1,4]oxazin-3-yl)-2-pyrimidinamine]	99%	95%	98%	97%	100%	186 to 189 °C	–	–	–	86%	98%	–
CC(C)Nc1nccc(-c2c(-c3ccc(F)cc3)nn3c2CCOC3)n1 [Compound 112, 4-[2-(4-fluorophenyl)-4,5-dihydro-7H-pyrazolo[1,5-c][1,3]oxazin-3-yl]-N-(1-methylethyl)-2-pyrimidinamine]	100%	99%	93%	95%	99%	167 to 169 °C	–	–	–	0%	99%	–
COC(=O)N1CCn2nc(-c3ccc(F)cc3)c(-c3ccnc(NC(C)C)n3)c2C1 [Compound 138, methyl 2-(4-fluorophenyl)-6,7-dihydro-3-[2-[(1-methylethyl)amino]-4-pyrimidinyl]pyrazolo[1,5-a]pyrazine-5(4H)-carboxylate]	–	–	99%	–	–	88 to 89 °C	–	68%	0%	0%	–	pest or weed control at 40 ppm [1]: 99%; pest or weed control at 40 ppm [2]: 86%; pest or weed control at 40 ppm [4]: 88%; pest or weed control at 40 ppm [6]: 98%; pest or weed control at 40 ppm [7]: 99%; pest or weed control at 40 ppm [12]: 83%
Fc1ccc(-c2nn3c(c2-c2ccnc(NC4CC4)n2)CCCC3)cc1 [Compound 12, N-cyclopropyl-4-[2-(4-fluorophenyl)-4,5,6,7-tetrahydropyrazolo[1,5-a]pyridin-3-yl]-2-pyrimidinamine]	100%	100%	99%	99%	100%	164 to 165 °C	94%	98%	64%	97%	100%	Test K disease control rating [3]: 0%
CC(C)Nc1nccc(-c2c(-c3ccccc3)nn3c2COCC3)n1 [Compound 116, 4-(6,7-dihydro-2-phenyl-4H-pyrazolo[5,1-c][1,4]oxazin-3-yl)-N-(1-methylethyl)-2-pyrimidinamine]	100%	95%	92%	93%	100%	185 to 187 °C	–	–	–	90%	91%	–
c1cc(-c2c(-c3ccsc3)nn3c2COCC3)nc(NC2CC2)n1 [Compound 121, N-cyclopropyl-4-[6,7-dihydro-2-(3-thienyl)-4H-pyrazolo[5,1-c][1,4]oxazin-3-yl]-2-pyrimidinamine]	99%	97%	84%	94%	99%	182 to 184 °C	15%	66%	–	0%	93%	pest or weed control at 200 ppm [1]: 89%
CC(C)Nc1nccc(-c2c(-c3ccc(F)cc3)nn3c2CCCC3)n1 [Compound 8, 4-[2-(4-fluorophenyl)-4,5,6,7-tetrahydropyrazolo[1,5-a]pyridin-3-yl]-N-(1-methylethyl)-2-pyrimidinamine]	100%	100%	100%	99%	100%	178 to 180 °C	99%	97%	62%	81%	100%	pest or weed control at 40 ppm [1]: 99%
CN(C)c1nccc(-c2c(-c3ccc(F)cc3)nn3c2CCCC3)n1 [compound 14]	–	–	–	–	–	–	–	–	–	–	–	Test C disease control rating [2]: 100%; Test K disease control rating [3]: 0%; Test J disease control rating [4]: 60%; Test D disease control rating [5]: 73%; Test B disease control rating [6]: 91%; Test L disease control rating [7]: 0%; Test F disease control rating [8]: 0%; Test H disease control rating [9]: 0%; Test E disease control rating [12]: 99%; Test I disease control rating [10]: 0%; Test A disease control rating [11]: 95%
CC(CO)Nc1nccc(-c2c(-c3ccc(F)cc3)nn3c2COCC3)n1 (stereo not shown) [Compound 108, 2-[[4-[2-(4-fluorophenyl)-6,7-dihydro-4H-pyrazolo[5,1-c][1,4]oxazin-3-yl]-2-pyrimidinyl]amino]-1-propanol]	98%	77%	87%	99%	100%	124 to 126 °C	–	–	–	43%	99%	–
CCCC(C)Nc1nccc(-c2c(-c3ccc(F)cc3)nn3c2CCCC3)n1 (stereo not shown) [compound 4]	–	–	–	–	–	–	–	–	–	–	–	Test C disease control rating [2]: 100%; Test K disease control rating [3]: 21%; Test J disease control rating [4]: 0%; Test D disease control rating [5]: 60%; Test B disease control rating [6]: 92%; Test L disease control rating [7]: 0%; Test F disease control rating [8]: 8%; Test H disease control rating [9]: 55%; Test E disease control rating [12]: 90%; Test I disease control rating [10]: 0%; Test A disease control rating [11]: 0%
Fc1ccc(-c2nn3c(c2-c2ccnc(Cl)n2)CCCN3)cc1	–	–	–	–	–	206 to 207 °C	–	–	–	–	–	–
